{"source": "patent US12502433B2", "about": "“Phosphonate-drug conjugates” (Massachusetts Eye and Ear Infirmary, priority 2016, dated 2025)", "key": {"[1]": {"assay": "Hearing measurements (CAP, DPOAE) after cochleostomy infusion", "type": "in vivo, guinea pig", "procedure": "For the cochleostomy experiments, compound action potentials (CAPs) from the auditory nerve were substituted for ABRs.\nA cochleostomy was performed approximately 0.5 mm distal to the round window via a bullectomy approach and the PTFE tubing was inserted into the scala tympani. Dental cement was used to seal the cochleostomy around the tubing. Infusion was performed at 1 μL over one minute, five times, spaced nine minutes apart. Control animals were treated with AP alone; 0.02× dosage animals were infused with 6-FAM-ZOL at 0.25 μg/μL; and 0.04× dosage animals were infused with 6-FAM-ZOL at 0.125 μg/μL+0.193 μg/μL zoledronate (total 4% of the 1× human zoledronate dose by molar weight). DPOAEs and CAPs were measured at time 0 (i.e., after cannula insertion and prior to infusion) and at 3 hrs. In independent experiments, three control animals were treated with AP alone, four animals were treated with AP containing 0.02× 6-FAM-ZOL, and three animals were treated with AP containing 0.04× 6-FAM-ZOL+zoledronate."}, "[2]": {"assay": "Hearing measurements (ABR, DPOAE) after RWM 6-FAM-ZOL", "type": "in vivo, guinea pig", "from_the_text": "Acoustic stimuli were digitally generated and auditory responses were monitored using a National Instruments PXI stimulus generation/data acquisition system, which included a 24 bit digital I-O board (PXI-4461) and a 16 bit digital I-O board (PXI-6221) and the Eaton Peabody Laboratories Cochlear Function Test Suite. To elicit the auditory brainstem responses (ABRs) and the compound action potentials (CAPs), 5 ms tone pip stimuli were used with 0.5 ms rise/fall times (cosine squared) in alternating polarity at 33/s.\nAcoustic stimuli were delivered via a custom acoustic assembly comprising two dynamic drivers as sound sources and a miniature electret microphone to measure sound pressure in situ (for a complete description, see e.g., http://www.masseyeandear.org/research/otolaryngology/investigators/laboratories/eaton-peabody-laboratories/ep1-engineering-resources). The response from the electrodes was amplified (10,000×), filtered (0.3-3 kHz bandpass), and averaged (512 samples at each frequency-level combination for ABRs and 128 samples for CAPs).\nABRs were recorded via subdermal needle electrodes (vertex—ventrolateral to the pinna of the test ear with a ground at the base of the tail). The CAPs electrode was located near the round window niche. […]\nDistortion product otoacoustic emissions (DPOAEs) were recorded for primary tones (f1, f2) over the same f2 range of frequencies, with a frequency ratio of 1.2, and with the level of the f2 primary 10 dB less than f1 level. […]\nDistortion product otoacoustic emissions (DPOAEs) and auditory brainstem responses (ABRs) were measured in the systemic and round window membrane (RWM) delivery experiments. […] Hearing was measured at 2.78, 4, 5.6, 8, 12, 16, 24, and 32 kHz.\nThe round window was visualized via a bullectomy approach and the beads were placed within the round window membrane (RWM) niche under direct microscopic visualization. […] DPOAEs and ABRs were first measured while animals were under anesthesia prior to bullectomy and again prior to analysis."}, "[3]": {"assay": "Round window membrane (RWM) alginate bead delivery of 6-FAM-ZOL: cochlear fluorescence", "type": "in vivo, guinea pig", "procedure": "All animals were therefore analyzed after maximal bisphosphonate deposition. […] Round window delivery animals were analyzed at 3 weeks to allow middle ear inflammation to subside prior to hearing analysis and to account for transit across the RWM.\nThe inner ears were harvested and stripped of soft tissue. All subsequent steps were performed in covered vials to prevent 6-FAM-ZOL bleaching. Specimens were fixed in an excess volume of neutral buffered formalin (10%, Fisher Scientific, Pittsburgh PA) at room temperature for 24 hours. The neutral buffered formalin was changed and fixation continued for another 24 hours. To prepare for resin embedding, specimens were dehydrated in an ascending series of ethanol (Fisher Scientific, 24 hr at 70%, 1 hr at 70%, 1 hr at 85%, 0.5 hr at 95%, 0.5 hr at 100%) followed by a wash in xylene (Fisher Scientific) and a 15 minute immersion in xylene. Specimens were cleared of xylene by a 1 hour infiltration in methyl methacrylate (MMA, Acrylosin soft, Dorn and Hart, Villa Park, IL) under vacuum. The MMA solution was changed and samples were infiltrated for 24 hours under vacuum. The infiltration solution was changed and the process was repeated for another 24 hours. […]\nHigh-resolution images (1360 by 1024; 16 bit) were taken under FITC illumination (470/40 excitation, 4951p dicroic; 525/50 emission) using a Carl Zeiss Axiovert 200 Inverted Microscope. ImageJ (Rasband WS, ImageJ, United States National Institutes of Health, Bethesda, Maryland, USA, 1997-2014) was used to quantify the amount of fluorescence within the cochlear wall and modiolus at each half-turn, as shown in FIG. 1. Background fluorescence, defined as the average amount of fluorescence in an area of the resin block containing no sample, was subtracted from all measurements. Fluorescence remained stable over at least two weeks after grinding if samples were kept in the dark at room temperature. […] Confocal images were collected over a depth of 500 μm to generate maximum fluorescence images. […]"}, "[4]": {"assay": "Human temporal bone model: 6-FAM-ZOL delivery through the oval window", "experimental": "6-FAM-ZOL was synthesized as described in Example 4 and was dissolved in artificial perilymph (AP) at a concentration of 10 μg/μL. The content of AP (pH 7.4) was 130 mM NaCl, 3.5 mM KCl, 1.5 mM CaCl2, 5.5 mM glucose, and 20 mM HEPES.\nSix freshly harvested cadaveric human temporal bones, which were obtained within 24 hours after death by the human temporal bone histopathology lab at Massachusetts Eye and Ear Infirmary, were used. The Pathology Quality Assurance Committee at Massachusetts General Hospital approved procurement of the specimens. The squamous and mastoid portions were drilled away, leaving the labyrinth. In three temporal bones, 1 μL of 10 μg/μL 6-FAM-ZOL was injected through the OW using a micropipette after lifting the stapes footplate. The footplate was then carefully laid back down. […]\nImages (1024 by 1024; 8 bit) were collected using a Leica TCS-SP2 confocal microscope to generate maximum fluorescence images. To identify the surface of each specimen, the point of maximum fluorescence in the z-axis was first identified. A stack of images was then collected to a depth of 500 μm from the point of maximum fluorescence. […] ImageJ was used to quantify the amount of fluorescence associated with the labeled bisphosphonate within the lateral cochlear wall and the modiolus of the scala vestibuli and scala tympani at each half-turn, as shown in FIG. 11. […]"}, "[5]": {"assay": "Hearing measurements (ABR, DPOAE) after systemic 6-FAM-ZOL", "type": "in vivo, guinea pig", "procedure": "ABRs were recorded via subdermal needle electrodes (vertex—ventrolateral to the pinna of the test ear with a ground at the base of the tail). The CAPs electrode was located near the round window niche. Sound level was incremented in 5 dB steps, from ˜10 dB below threshold to 90 dB sound pressure level (SPL). Threshold for ABRs and CAPs was defined as the lowest stimulus level at which a repeatable wave could be identified in the response waveform.\nDistortion product otoacoustic emissions (DPOAEs) were recorded for primary tones (f1, f2) over the same f2 range of frequencies, with a frequency ratio of 1.2, and with the level of the f2 primary 10 dB less than f1 level. Primaries were incremented together in 5 dB steps from −10 dB below threshold to 80 dB SPL. Ear-canal sound pressure was amplified and digitally sampled, FFTs were computed and averaged, and the 2f1-f2 DPOAE and surrounding noise floor were extracted. Iso-response contours were interpolated from plots of response amplitude vs. sound level. Threshold is defined as the f1 level required to produce a DPOAE of −5 dB SPL.\nDistortion product otoacoustic emissions (DPOAEs) and auditory brainstem responses (ABRs) were measured in the systemic and round window membrane (RWM) delivery experiments. […] Hearing was measured at 2.78, 4, 5.6, 8, 12, 16, 24, and 32 kHz. […]"}, "[6]": {"assay": "6-FAM-ZOL infusion into the scala tympani via cochleostomy: cochlear fluorescence", "type": "in vivo, guinea pig", "procedure": "All animals were therefore analyzed after maximal bisphosphonate deposition. […] Intracochlear delivery animals were analyzed at 3 hours as this timepoint allowed for high levels of delivery while avoiding the potential long-term effects of a cochleostomy.\nThe inner ears were harvested and stripped of soft tissue. All subsequent steps were performed in covered vials to prevent 6-FAM-ZOL bleaching. Specimens were fixed in an excess volume of neutral buffered formalin (10%, Fisher Scientific, Pittsburgh PA) at room temperature for 24 hours. The neutral buffered formalin was changed and fixation continued for another 24 hours. To prepare for resin embedding, specimens were dehydrated in an ascending series of ethanol (Fisher Scientific, 24 hr at 70%, 1 hr at 70%, 1 hr at 85%, 0.5 hr at 95%, 0.5 hr at 100%) followed by a wash in xylene (Fisher Scientific) and a 15 minute immersion in xylene. Specimens were cleared of xylene by a 1 hour infiltration in methyl methacrylate (MMA, Acrylosin soft, Dorn and Hart, Villa Park, IL) under vacuum. The MMA solution was changed and samples were infiltrated for 24 hours under vacuum. The infiltration solution was changed and the process was repeated for another 24 hours. Specimens were embedded in a solution of MMA containing 0.25% w/v (2.5 g/L) of perkadox-16 (Dom and Hart) for several hours under vacuum. […]\nHigh-resolution images (1360 by 1024; 16 bit) were taken under FITC illumination (470/40 excitation, 4951p dicroic; 525/50 emission) using a Carl Zeiss Axiovert 200 Inverted Microscope. ImageJ (Rasband WS, ImageJ, United States National Institutes of Health, Bethesda, Maryland, USA, 1997-2014) was used to quantify the amount of fluorescence within the cochlear wall and modiolus at each half-turn, as shown in FIG. 1. Background fluorescence, defined as the average amount of fluorescence in an area of the resin block containing no sample, was subtracted from all measurements. […] Confocal images were collected over a depth of 500 μm to generate maximum fluorescence images. […]"}, "[7]": {"type": "in vivo", "procedure": "Male albino guinea pigs (Hartley strain; Charles River Laboratories, Inc., Wilmington, MA), each weighing approximately 350 g, were used. Nembutal (12.5 mg/kg intraperitoneally), Fentanyl (0.1 mg/kg intramuscularly), and Droperidol (5 mg/kg intramuscularly) were given for anesthesia. Supplemental doses of 0.7 mg/kg Fentanyl and 3.0 mg/kg Droperidol alternating with 6.25 mg/kg Nembutal were administered as needed. Animals were euthanized using pentobarbital (Fatal-Plus) at 390 mg/kg. The Massachusetts Eye and Ear Infirmary Institutional Animal Care and Use Committee approved all procedures.\nAll animals were therefore analyzed after maximal bisphosphonate deposition. Systemic delivery animals were analyzed at 48 hrs to account for potential differences between IP (our system) and IV (human) delivery.\nThe inner ears were harvested and stripped of soft tissue. All subsequent steps were performed in covered vials to prevent 6-FAM-ZOL bleaching. Specimens were fixed in an excess volume of neutral buffered formalin (10%, Fisher Scientific, Pittsburgh PA) at room temperature for 24 hours. The neutral buffered formalin was changed and fixation continued for another 24 hours. To prepare for resin embedding, specimens were dehydrated in an ascending series of ethanol (Fisher Scientific, 24 hr at 70%, 1 hr at 70%, 1 hr at 85%, 0.5 hr at 95%, 0.5 hr at 100%) followed by a wash in xylene (Fisher Scientific) and a 15 minute immersion in xylene. Specimens were cleared of xylene by a 1 hour infiltration in methyl methacrylate (MMA, Acrylosin soft, Dorn and Hart, Villa Park, IL) under vacuum. The MMA solution was changed and samples were infiltrated for 24 hours under vacuum. The infiltration solution was changed and the process was repeated for another 24 hours. Specimens were embedded in a solution of MMA containing 0.25% w/v (2.5 g/L) of perkadox-16 (Dom and Hart) for several hours under vacuum. After several hours, specimens were sealed in 50 mL polypropylene tubes and maintained at room temperature in a heat sink until fully cured (approximately 5 days).\nSections were prepared for fluorescent imaging by orienting and grinding the sample surface to the level of the mid-modiolus. Surfaces were polished on a 12″ table mounted rotary wheel using water and a progressively finer series of silicon carbide abrasive papers ending with 2400 grit (Buehler, Lake Bluff, 11).\nHigh-resolution images (1360 by 1024; 16 bit) were taken under FITC illumination (470/40 excitation, 4951p dicroic; 525/50 emission) using a Carl Zeiss Axiovert 200 Inverted Microscope. ImageJ (Rasband WS, ImageJ, United States National Institutes of Health, Bethesda, Maryland, USA, 1997-2014) was used to quantify the amount of fluorescence within the cochlear wall and modiolus at each half-turn, as shown in FIG. 1. Background fluorescence, defined as the average amount of fluorescence in an area of the resin block containing no sample, was subtracted from all measurements. Fluorescence remained stable over at least two weeks after grinding if samples were kept in the dark at room temperature. Some images were also collected using a Leica TCS-SP2 confocal microscope. Confocal images were collected over a depth of 500 μm to generate maximum fluorescence images.\nMixed model analysis of variance was used to analyze the effect of dose on fluorescent response in the cochlea."}, "[8]": {"conditions": "humans, cited from earlier work"}, "[9]": {"system": "spiral ganglion neurons", "assay": "In vitro spiral ganglion neurite outgrowth", "type": "cell-based, CBA/CaJ pups", "conditions": "400 nM, 48 hours", "experimental": "Cochleae were harvested from P3-4 CBA/CaJ pups, after which the spiral ganglion neurons were sharply dissected free in a clump of cells, divided into three roughly equal sections, and plated with fibronectin on Dulbecco's Modified Eagle's medium (DMEM). Individual sections were then treated with media alone, 400 nM DHF, 400 nM RIS, or 400 nM DHF-RIS (Example 1) for 48 hours. After fixing and immunostaining with TUJI, the neurites were visualized under confocal microscopy and the neurite length quantified using ImageJ."}, "[10]": {"system": "SG neurites", "assay": "In vitro attraction of SG neurites after pre-binding to hydroxyapatite", "type": "cell-based", "experimental": "This assay was performed to confirm that the DHF moiety within DHF-RIS (Example 1) remained available to attract neurites from a distance after binding to hydroxyapatite, a mineral substitute for bone. In a modification of the data shown in FIG. 14A, a separate set of experiments was performed in which RIS-DHF was pre-bound to hydroxyapatite pellets. The pellets were washed with media, and plated along with SGN explants. To visualize the hydroxyapatite pellets, a small amount of 6-FAM-ZOL (Example 4) was added to all samples. It was observed that neurites traveled up to […] before ending on and overlapping with hydroxyapatite pellets, as shown in FIG. 14C."}, "[11]": {"system": "ribbon synapses", "assay": "Ribbon synapse regeneration in organ of Corti explants after kainic acid", "type": "cell-based", "conditions": "400 nM after two hours kainic acid", "experimental": "To characterize the ability of DHF-RIS to regenerate ribbon synapses, a previously described organ of Corti explant system was used, wherein kainic acid was used to mimic excitotoxic damage to the ribbon synapse (see e.g., Wang et al, 7The Journal of Neuroscience: the official journal of the Society for Neuroscience, 2011, 31:7938-7949). Explants were treated with kainic acid for two hours to destroy synapses and then treated with 400 nM DHF, 400 nM RIS, or […] DHF-RIS (Example 1). Comparison was made with control samples not treated with kainic acid (KA−) and samples treated with kainic acid but no other drug (KA+). Synapses were detected by co-localization of CtBP2 and PSD95 as previously described and counted using the Amira program by an observer blinded to sample identity."}, "[12]": {"conditions": "0.02× cochleostomy infusion, 3 hrs, relative to control animals"}, "[13]": {"conditions": "three weeks after placement on the RWM"}, "[14]": {"conditions": "systemic 1× and 3× doses, 48 hrs"}, "[15]": {"conditions": "1× systemic dose (0.185 mg/kg IP), 48 hrs"}, "[16]": {"conditions": "control, 1× and 3× systemic doses"}}, "note": "Read-outs that look alike come from different tables or passages of the source."}
{"smiles": "O=C(NCC(O)C[n+]1ccn(CC(O)(P(=O)(O)O)P(=O)(O)O)c1)c1ccc(C(=O)O)c(-c2c3ccc(=O)cc-3oc3cc(O)ccc23)c1", "note": "(stereo not drawn) [Example 6-FAM-ZOL]", "values": [{"measurement": "additional CAP shift", "setting": "[1]; [12]", "value": "10-15 dB"}, {"measurement": "additional DPOAE shift", "setting": "[1]; [12]", "value": "10-15 dB"}, {"measurement": "immediate ototoxicity", "setting": "[1]; direct infusion into the cochlea", "value": "without significant immediate ototoxicity"}, {"measurement": "ototoxicity", "setting": "[2]; local delivery onto the RWM", "value": "not ototoxic"}, {"measurement": "ABR shift", "setting": "[2]; [13]", "value": "no shifts"}, {"measurement": "DPOAE shift", "setting": "[2]; [13]", "value": "no shifts"}, {"measurement": "cochlear fluorescence", "setting": "[3]; 0.1× dose on RWM, 3 weeks", "value": "lower, but still detectable"}, {"measurement": "delivery throughout the lateral wall of the cochlea (fluorescence)", "setting": "[3]; 0.3× dose in alginate bead on RWM, 3 weeks", "value": "comparable to the 1× systemic dose"}, {"measurement": "levels of fluorescence in modiolus and lateral wall vs control", "setting": "[3]; RWM delivery 0.1× and 0.3×", "value": "significantly higher than the control"}, {"measurement": "fluorescent signal in bony walls of the vestibular capsule and the cochlea", "setting": "[4]; 1 μL of 10 μg/μL through the oval window, 4 days", "value": "strong fluorescent signal"}, {"measurement": "effect of dose (6-FAM-ZOL vs artificial perilymph) on fluorescence, lateral wall and modiolus, scala vestibuli and scala tympani", "setting": "[4]; all p<0.05", "value": "significant effect of dose"}, {"measurement": "ABR change", "setting": "[5]; [14]", "value": "No significant physiological changes"}, {"measurement": "DPOAE change", "setting": "[5]; [14]", "value": "No significant physiological changes"}, {"measurement": "ototoxicity", "setting": "[5]; systemic treatment", "value": "non-ototoxic"}, {"measurement": "total average fluorescence of the lateral wall vs control", "setting": "[6]; 0.2× dose (so in the source)", "value": "significantly greater"}, {"measurement": "total average fluorescence of the modiolus vs control", "setting": "[6]; 0.2× treatment (so in the source)", "value": "significantly greater"}, {"measurement": "fluorescent signal along osseous spiral lamina of the modiolus and lateral wall of the cochlea", "setting": "[6]; 2% (0.02×) of the 1× systemic dose, 3 hours", "value": "bright fluorescent signal"}, {"measurement": "average fluorescence stronger in tibiae compared to cochleae", "setting": "[7]; 1× systemic dose", "value": 50, "unit": "%"}, {"measurement": "average fluorescence above control, cochleae", "setting": "[7]; [15]", "value": "approximately 5,800 fluorescence units"}, {"measurement": "average fluorescence above control, tibiae", "setting": "[7]; [15]", "value": "~8,800 fluorescence units"}, {"measurement": "fluorescence in lateral wall of cochleae", "setting": "[7]; [16]", "value": "increased with dose and the differences were statistically significant"}, {"measurement": "fluorescence in tibiae", "setting": "[7]; [16]", "value": "dose-dependent and statistically significant"}]}
{"smiles": "O=P(O)(O)C(O)(Cn1ccnc1)P(=O)(O)O", "note": "[zoledronate]", "values": [{"measurement": "drug remaining in plasma", "setting": "[8]; after 24 hours", "value": "less than 1%"}, {"measurement": "plasma half-life", "setting": "[8]; first of two half-lives", "value": 12, "unit": "min"}, {"measurement": "plasma half-life", "setting": "[8]; second of two half-lives", "value": 84, "unit": "min"}]}
{"smiles": "O=C(CCOCCOCCOCCOCCNC(=O)c1ccc(-c2cc(=O)c3ccc(O)c(O)c3o2)cc1)NCC(O)C[n+]1cccc(CC(O)(P(=O)(O)O)P(=O)(O)O)c1", "note": "(stereo not drawn) [DHF-RIS]", "values": [{"measurement": "neurite outgrowth (neurite length)", "setting": "[9]", "value": "significant outgrowth"}, {"measurement": "distance neurites traveled before ending on hydroxyapatite pellets", "setting": "[10]; conjugate pre-bound to hydroxyapatite pellets", "value": "up to 400 μM"}, {"measurement": "attraction of SG neurites after pre-binding to hydroxyapatite", "setting": "[10]; in vitro", "value": "available to attract SG neurites"}, {"measurement": "regeneration of ribbon synapses", "setting": "[11]", "value": "significant regeneration compared to non-rescued explants, although less than native DHF"}]}
{"smiles": "O=P(O)(O)C(O)(Cc1cccnc1)P(=O)(O)O", "note": "[RIS, reference compound]", "values": [{"measurement": "regeneration of ribbon synapses", "setting": "[11]", "value": "some ability to regenerate synapses"}]}
